Measurements from patent publication US10870647B2, “Imidazopyridine derivative, method for preparing same, and pharmaceutical composition containing same as active ingredient for preventing or treating cancer” (DAEGU-GYEONGBUK MEDICAL INNOVATION FOUNDATION, priority 2016, dated 2020).

Legend:
[1] = molecular target: T1, JAK2(JH1domain-catalytic) (Homo sapiens, UniProt O60674); assay: Enzyme inhibitory activity (Kd), Reaction Biology Co.; type: binding
T1 construct: JAK2 (JH1domain-catalytic); purchased Reaction Biology Co

LOK = molecular target: T2, LOK (Homo sapiens, UniProt O94804); assay: as above; type: binding
T2 construct: purchased Reaction Biology Co

CSF1R = molecular target: T3, CSF1R (Homo sapiens, UniProt P07333); assay: as above; type: binding
T3 construct: purchased Reaction Biology Co

CDK11 = molecular target: T4, CDK11 (Homo sapiens, UniProt Q9BWU1); assay: as above; type: binding
T4 construct: purchased Reaction Biology Co

SRC = molecular target: T5, SRC (Homo sapiens, UniProt P12931); assay: as above; type: binding
T5 construct: purchased Reaction Biology Co

FYN = molecular target: T6, FYN (Homo sapiens, UniProt P06241); assay: as above; type: binding
T6 construct: purchased Reaction Biology Co

BLK = molecular target: T7, BLK (Homo sapiens, UniProt P51451); assay: as above; type: binding
T7 construct: purchased Reaction Biology Co

YES = molecular target: T8, YES (Homo sapiens, UniProt P07947); assay: as above; type: binding
T8 construct: purchased Reaction Biology Co

LYN = molecular target: T9, LYN (Homo sapiens, UniProt P07948); assay: as above; type: binding
T9 construct: purchased Reaction Biology Co

HCK = molecular target: T10, HCK (Homo sapiens, UniProt P08631); assay: as above; type: binding
T10 construct: purchased Reaction Biology Co

FGR = molecular target: T11, FGR (Homo sapiens, UniProt P09769); assay: as above; type: binding
T11 construct: purchased Reaction Biology Co

LCK = molecular target: T12, LCK (Homo sapiens, UniProt P06239); assay: as above; type: binding
T12 construct: purchased Reaction Biology Co

[2] = test system: STZ diabetes induced white mice; assay: Diabetes (streptozotocin) induced white mice; type: in vivo, SD rats; settings: STZ + Example 11 (30 mg/kg), 8 weeks; Mean ± SE
Procedure: Blood was collected with a heparinized syringe before sacrificing the experimental animals. HbA1c was measured by using a DCA2000 HbA1c reagent kit (SIEMENS Healthcare Diagnostics, Inc., Tarrytown, N.Y., USA) and blood sugar was measured by using a glucometer (OneTouch Ultra, Johnson & Johnson co., CA, USA). The blood sample obtained above was centrifuged at 3000 rpm at 4° C. for 15 minutes to obtain serum. Serum cystatin C was measured by using an ELISA kit (R&D Systems, Minneapolis, Minn., USA). […]
Male SD white mice at 6-7 weeks of age (Japan SLC Inc., Hamamatsu, Japan) were used. Streptozotocin (STZ, 60 mg/kg, intraperitoneally administered) was administered to the experimental animals to induce type I diabetes. The STZ non-treated control group was treated with sodium citrate buffer (sodium citrate 100 mM, citric acid 100 mM, pH 4.5). To investigate the therapeutic effect of the compound of example 11, the compound was orally administered to the experimental animals for 8 weeks from the beginning of diabetes induction. The effect was compared with that of losartan (1 mg/kg/d) that is an angiotensin receptor antagonist being used clinically as a drug to treat diabetic nephropathy. The diabetic control (treated with STZ alone) was administered with the solvent of Example 11, DMSO/Tween 70.DW (10:5:85).
Table 8 below presents the body weight, kidney weight, ratio of kidney to body weight, HbA1C, blood sugar and urine amount (volume) of the mice of each group, which were measured 8 weeks after the treatment of control (non-treated with STZ), STZ, STZ+compound of Example 11 (30 mg/kg) and STZ+losartan (1 mg/kg).

EPHB6 = molecular target: T13, EPHB6 (Homo sapiens, UniProt O15197); assay: Enzyme inhibitory activity (Kd), Reaction Biology Co.; type: binding
T13 construct: purchased Reaction Biology Co

T2 sequence (O94804 whole entry): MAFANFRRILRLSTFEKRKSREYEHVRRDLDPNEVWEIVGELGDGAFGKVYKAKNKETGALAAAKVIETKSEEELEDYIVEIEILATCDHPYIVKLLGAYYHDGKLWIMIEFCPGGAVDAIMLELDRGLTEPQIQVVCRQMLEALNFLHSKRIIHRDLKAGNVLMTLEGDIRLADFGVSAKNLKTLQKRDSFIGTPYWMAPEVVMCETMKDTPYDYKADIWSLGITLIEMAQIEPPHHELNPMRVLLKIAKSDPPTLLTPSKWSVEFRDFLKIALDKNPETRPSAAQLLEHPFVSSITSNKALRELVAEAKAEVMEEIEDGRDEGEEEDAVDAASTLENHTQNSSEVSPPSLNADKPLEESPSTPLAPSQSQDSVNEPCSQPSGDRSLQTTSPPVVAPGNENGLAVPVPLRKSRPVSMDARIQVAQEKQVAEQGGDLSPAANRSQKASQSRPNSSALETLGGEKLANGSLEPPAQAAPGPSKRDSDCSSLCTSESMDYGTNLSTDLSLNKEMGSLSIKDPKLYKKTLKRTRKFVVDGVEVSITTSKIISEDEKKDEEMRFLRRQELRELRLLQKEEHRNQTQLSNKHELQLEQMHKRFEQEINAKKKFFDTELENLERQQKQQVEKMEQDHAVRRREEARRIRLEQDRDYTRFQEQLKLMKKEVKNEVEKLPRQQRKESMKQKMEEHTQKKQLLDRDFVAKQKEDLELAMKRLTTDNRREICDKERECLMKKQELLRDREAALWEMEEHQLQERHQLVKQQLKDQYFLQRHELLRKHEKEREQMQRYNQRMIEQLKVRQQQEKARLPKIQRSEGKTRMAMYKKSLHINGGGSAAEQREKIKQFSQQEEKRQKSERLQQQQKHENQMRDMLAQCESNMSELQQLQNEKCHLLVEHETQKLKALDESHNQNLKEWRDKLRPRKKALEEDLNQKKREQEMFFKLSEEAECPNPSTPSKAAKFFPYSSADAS
T1 sequence (O60674 849-1124 limits assumed): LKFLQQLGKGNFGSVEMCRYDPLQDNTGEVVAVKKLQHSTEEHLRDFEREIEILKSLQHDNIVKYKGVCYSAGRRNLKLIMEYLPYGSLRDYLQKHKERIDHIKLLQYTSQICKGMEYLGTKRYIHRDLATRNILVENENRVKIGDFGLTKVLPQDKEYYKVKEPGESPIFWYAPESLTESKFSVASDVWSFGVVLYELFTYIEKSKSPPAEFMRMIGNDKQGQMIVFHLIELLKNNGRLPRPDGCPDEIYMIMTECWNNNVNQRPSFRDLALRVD
T3 sequence (P07333 20-972): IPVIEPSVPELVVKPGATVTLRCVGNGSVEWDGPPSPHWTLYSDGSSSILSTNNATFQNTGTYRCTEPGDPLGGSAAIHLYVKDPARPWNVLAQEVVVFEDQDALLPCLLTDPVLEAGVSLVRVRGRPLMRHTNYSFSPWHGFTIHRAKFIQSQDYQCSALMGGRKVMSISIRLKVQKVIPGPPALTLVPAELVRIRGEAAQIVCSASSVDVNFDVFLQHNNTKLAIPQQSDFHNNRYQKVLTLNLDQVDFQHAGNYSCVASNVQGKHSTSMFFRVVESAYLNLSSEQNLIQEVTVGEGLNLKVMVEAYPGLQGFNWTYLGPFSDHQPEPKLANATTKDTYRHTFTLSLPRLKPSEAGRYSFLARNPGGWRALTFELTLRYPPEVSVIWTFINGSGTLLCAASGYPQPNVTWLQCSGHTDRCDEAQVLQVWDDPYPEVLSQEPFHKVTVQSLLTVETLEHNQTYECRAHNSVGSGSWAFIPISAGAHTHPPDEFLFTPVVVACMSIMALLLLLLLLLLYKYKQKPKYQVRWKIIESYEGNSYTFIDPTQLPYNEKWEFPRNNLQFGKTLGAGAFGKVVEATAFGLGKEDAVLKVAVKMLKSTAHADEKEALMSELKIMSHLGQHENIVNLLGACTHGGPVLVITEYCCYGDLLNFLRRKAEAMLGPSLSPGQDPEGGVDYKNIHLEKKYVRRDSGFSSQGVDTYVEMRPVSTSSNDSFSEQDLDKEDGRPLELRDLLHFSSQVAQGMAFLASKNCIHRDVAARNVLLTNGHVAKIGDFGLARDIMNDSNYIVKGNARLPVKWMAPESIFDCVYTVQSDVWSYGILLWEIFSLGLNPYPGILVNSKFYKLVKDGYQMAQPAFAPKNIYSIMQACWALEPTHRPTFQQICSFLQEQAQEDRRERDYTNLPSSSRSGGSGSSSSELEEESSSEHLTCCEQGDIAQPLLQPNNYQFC
T4 sequence (Q9BWU1 whole entry): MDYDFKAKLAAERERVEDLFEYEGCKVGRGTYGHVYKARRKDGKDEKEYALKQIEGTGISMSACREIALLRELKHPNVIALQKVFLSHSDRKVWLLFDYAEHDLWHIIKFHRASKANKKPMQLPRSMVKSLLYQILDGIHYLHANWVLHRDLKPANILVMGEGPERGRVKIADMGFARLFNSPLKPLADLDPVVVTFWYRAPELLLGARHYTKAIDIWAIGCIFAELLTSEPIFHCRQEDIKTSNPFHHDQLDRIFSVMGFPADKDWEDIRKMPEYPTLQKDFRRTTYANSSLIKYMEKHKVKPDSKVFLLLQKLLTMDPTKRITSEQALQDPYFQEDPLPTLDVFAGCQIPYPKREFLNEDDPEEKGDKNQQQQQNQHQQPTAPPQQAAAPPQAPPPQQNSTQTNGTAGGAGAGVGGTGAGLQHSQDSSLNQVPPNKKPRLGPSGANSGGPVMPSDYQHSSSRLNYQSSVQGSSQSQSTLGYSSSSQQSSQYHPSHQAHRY
T11 sequence (P09769 whole entry): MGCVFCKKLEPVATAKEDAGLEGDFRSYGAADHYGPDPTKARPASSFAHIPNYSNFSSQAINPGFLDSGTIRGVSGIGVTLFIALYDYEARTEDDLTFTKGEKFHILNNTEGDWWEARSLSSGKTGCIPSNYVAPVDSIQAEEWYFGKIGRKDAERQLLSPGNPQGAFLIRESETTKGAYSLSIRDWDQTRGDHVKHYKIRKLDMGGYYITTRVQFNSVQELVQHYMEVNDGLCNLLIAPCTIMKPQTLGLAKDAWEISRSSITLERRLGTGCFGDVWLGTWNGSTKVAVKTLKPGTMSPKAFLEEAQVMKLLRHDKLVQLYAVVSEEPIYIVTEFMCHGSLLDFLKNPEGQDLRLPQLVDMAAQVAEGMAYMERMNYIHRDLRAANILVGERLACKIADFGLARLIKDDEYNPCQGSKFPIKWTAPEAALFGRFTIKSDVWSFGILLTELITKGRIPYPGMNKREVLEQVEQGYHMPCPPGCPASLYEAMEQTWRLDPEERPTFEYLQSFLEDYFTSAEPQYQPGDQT
T12 sequence (P06239 whole entry): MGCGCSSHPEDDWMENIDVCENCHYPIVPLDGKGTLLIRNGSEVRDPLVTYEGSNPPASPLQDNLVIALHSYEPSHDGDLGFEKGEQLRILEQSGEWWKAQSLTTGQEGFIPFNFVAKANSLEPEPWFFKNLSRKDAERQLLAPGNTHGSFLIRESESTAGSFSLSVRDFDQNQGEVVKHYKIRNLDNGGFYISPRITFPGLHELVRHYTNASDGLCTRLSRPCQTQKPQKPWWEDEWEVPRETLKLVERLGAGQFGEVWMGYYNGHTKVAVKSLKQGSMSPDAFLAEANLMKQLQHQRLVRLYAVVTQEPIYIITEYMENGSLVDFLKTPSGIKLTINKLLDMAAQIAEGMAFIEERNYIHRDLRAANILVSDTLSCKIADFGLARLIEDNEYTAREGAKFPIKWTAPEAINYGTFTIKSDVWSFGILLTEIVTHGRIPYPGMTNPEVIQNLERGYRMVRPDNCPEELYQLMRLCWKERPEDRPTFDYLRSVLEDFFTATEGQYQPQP
T8 sequence (P07947 whole entry): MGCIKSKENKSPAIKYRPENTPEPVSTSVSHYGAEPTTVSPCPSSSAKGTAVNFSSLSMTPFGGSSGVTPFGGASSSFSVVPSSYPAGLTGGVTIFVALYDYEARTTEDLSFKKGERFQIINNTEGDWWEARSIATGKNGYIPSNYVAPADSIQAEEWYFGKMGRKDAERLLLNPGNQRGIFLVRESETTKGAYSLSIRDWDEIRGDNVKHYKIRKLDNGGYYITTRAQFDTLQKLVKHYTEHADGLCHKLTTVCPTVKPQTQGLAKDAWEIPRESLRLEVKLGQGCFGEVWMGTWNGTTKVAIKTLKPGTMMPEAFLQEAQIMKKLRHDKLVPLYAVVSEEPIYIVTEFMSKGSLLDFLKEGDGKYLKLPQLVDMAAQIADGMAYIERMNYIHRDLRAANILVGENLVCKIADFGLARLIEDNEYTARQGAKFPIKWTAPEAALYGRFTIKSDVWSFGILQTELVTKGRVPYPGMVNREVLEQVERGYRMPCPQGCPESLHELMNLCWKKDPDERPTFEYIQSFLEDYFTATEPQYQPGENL
T7 sequence (P51451 whole entry): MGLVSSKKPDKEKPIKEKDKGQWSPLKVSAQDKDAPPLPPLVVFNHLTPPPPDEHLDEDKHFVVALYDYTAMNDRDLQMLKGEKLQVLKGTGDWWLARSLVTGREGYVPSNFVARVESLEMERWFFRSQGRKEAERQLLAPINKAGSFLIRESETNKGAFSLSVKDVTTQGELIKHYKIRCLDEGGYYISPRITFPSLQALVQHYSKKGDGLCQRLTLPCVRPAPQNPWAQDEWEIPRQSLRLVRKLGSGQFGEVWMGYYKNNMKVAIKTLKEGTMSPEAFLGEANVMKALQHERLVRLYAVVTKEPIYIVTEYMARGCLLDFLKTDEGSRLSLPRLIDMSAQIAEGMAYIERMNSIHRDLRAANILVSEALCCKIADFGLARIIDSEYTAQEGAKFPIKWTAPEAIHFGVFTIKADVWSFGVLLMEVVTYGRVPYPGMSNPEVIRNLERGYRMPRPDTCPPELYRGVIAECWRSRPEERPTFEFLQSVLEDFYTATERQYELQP

## Cc1ccc(C(=O)Nc2ccc(CN3CCN(C)CC3)c(C(F)(F)F)c2)cc1C#Cc1cnc2c(Nc3cnn(C)c3)cccn12 [Example 1, 4-methyl-3-((8-((1-methyl-1H-pyrazol-4-yl)amino)imidazo[1,2-a]pyridin-3-yl)ethynyl)-N-(4-((4-methylpiperazin-1-yl)methyl)-3-(trifluoromethyl)phenyl)benzamide]
[1]
  Kd: 220 nM
LOK
  Kd: 7.3 nM
CSF1R
  Kd: 34 nM
CDK11
  Kd: 140 nM

## CCN1CCN(Cc2ccc(NC(=O)c3ccc(C)c(C#Cc4cnc5c(Nc6cnn(C)c6)cccn45)c3)cc2C(F)(F)F)CC1 [Example 8, N-(4-((4-ethylpiperazin-1-yl)methyl)-3-(trifluoromethyl)phenyl)-4-methyl-3-((8-((1-methyl-1H-pyrazol-4-yl)amino)imidazo[1,2-a]pyridin-3-yl)ethynyl)benzamide]
SRC
  Kd: 10 nM
[1]
  Kd: 270 nM
FYN
  Kd: 52 nM
BLK
  Kd: 5 nM
YES
  Kd: 17 nM
LYN
  Kd: 15 nM
HCK
  Kd: 7.7 nM
FGR
  Kd: 13 nM
LCK
  Kd: 6.4 nM

## Cc1ccc(C(=O)Nc2cccc(C(F)(F)F)c2)cc1C#Cc1cnc2c(Nc3cnn(C4CCNCC4)c3)cccn12 [Example 11, 4-methyl-3-((8-((1-(piperidin-4-yl)-1H-pyrazol-4-yl)amino)imidazo[1,2-a]pyridin-3-yl)ethynyl)-N-(3-(trifluoromethyl)phenyl)benzamide]
[2]
  HbA1C: 6.7 ± 0.2 %
  Kidney: 1.6 ± 0.1 g
  Urine volume: 93.0 ± 12.5
  Weight: 241 ± 16.0 g
  blood sugar: 392 ± 33 mg/dL
  kidney/Weight ratio: 0.7 ± 0.04

## Cc1ccc(NC(=O)C2(C(=O)Nc3ccc(F)cc3)CC2)cc1C#Cc1cnc2c(Nc3cnn(C(C)C)c3)cccn12 [Example 78]
LOK
  Kd: 37 nM
EPHB6
  Kd: 15 nM
CSF1R
  Kd: 440 nM
